One test has as its system EKVX. Briefly: NCI-60 five-dose assay. The settings on record: EKVX, Non-Small Cell Lung Cancer. Format: cell-based, human.
For test [1], the system named is full panel of 60 human tumor cell lines. As to the kind of experiment: NCI-60 five-dose assay, full panel. Format: cell-based.
The target in another test is EGFR (Homo sapiens, UniProt P00533). Briefly: EGFR inhibitory assay.
Another test has as its system MOLT-4. As to the kind of experiment: NCI-60 five-dose assay. Format: cell-based, human. The settings on record: MOLT-4, Leukemia.
The subject of another test is OVCAR-3. As to the kind of experiment: NCI-60 five-dose assay. The settings on record: OVCAR-3, Ovarian Cancer. Format: cell-based, human.
Another test relates to CAKI-1. As to the kind of experiment: NCI-60 five-dose assay. Format: cell-based, human. The settings on record: CAKI-1, Renal Cancer.
A further test has as its system HS 578T. As to the kind of experiment: NCI-60 five-dose assay. The settings on record: HS 578T, Breast Cancer. The format is cell-based, human.
The next test has as its system SNB-75. Briefly: NCI-60 five-dose assay. The settings on record: SNB-75, CNS Cancer. Format: cell-based, human.
In the next test the test system is MDA-MB-468. As to the kind of experiment: NCI-60 five-dose assay. The format is cell-based, human. The settings on record: MDA-MB-468, Breast Cancer.
For a further test, the system named is OVCAR-8. As to the kind of experiment: NCI-60 five-dose assay. The format is cell-based, human. The settings on record: OVCAR-8, Ovarian Cancer.
For the next test, the system named is M14. As to the kind of experiment: NCI-60 five-dose assay. The format is cell-based, human. The settings on record: M14, Melanoma.
For the next test, the system named is IGROV1. As to the kind of experiment: NCI-60 five-dose assay. The settings on record: IGROV1, Ovarian Cancer. The format is cell-based, human.
A further test relates to SW-620. As to the kind of experiment: NCI-60 five-dose assay. Format: cell-based, human. The settings on record: SW-620, Colon Cancer.
Another test concerns RXF 393. As to the kind of experiment: NCI-60 five-dose assay. Format: cell-based, human. The settings on record: RXF 393, Renal Cancer.
For another test, the system named is SK-MEL-2. Briefly: NCI-60 five-dose assay. Format: cell-based, human. The settings on record: SK-MEL-2, Melanoma.
The next test has as its system DU-145. As to the kind of experiment: NCI-60 five-dose assay. The format is cell-based, human. The settings on record: DU-145, Prostate Cancer.
The next test has as its system SR. Briefly: NCI-60 five-dose assay. The settings on record: SR, Leukemia. Format: cell-based, human.
Another test concerns U251. Briefly: NCI-60 five-dose assay. The format is cell-based, human. The settings on record: U251, CNS Cancer.
Another test deals with 786-0. As to the kind of experiment: NCI-60 five-dose assay. Format: cell-based, human. The settings on record: 786-0, Renal Cancer.
Where [2] appears, read: Homo sapiens, read-out: GI50 Conc. per Cell Line.
The mark [3] stands for this setting: Homo sapiens, read-out: LC50 (the source's name).

SMILES strings stand for the structures. Read-outs that look alike come from different tables or passages of the source.

Sequence of EGFR (P00533 669-1210): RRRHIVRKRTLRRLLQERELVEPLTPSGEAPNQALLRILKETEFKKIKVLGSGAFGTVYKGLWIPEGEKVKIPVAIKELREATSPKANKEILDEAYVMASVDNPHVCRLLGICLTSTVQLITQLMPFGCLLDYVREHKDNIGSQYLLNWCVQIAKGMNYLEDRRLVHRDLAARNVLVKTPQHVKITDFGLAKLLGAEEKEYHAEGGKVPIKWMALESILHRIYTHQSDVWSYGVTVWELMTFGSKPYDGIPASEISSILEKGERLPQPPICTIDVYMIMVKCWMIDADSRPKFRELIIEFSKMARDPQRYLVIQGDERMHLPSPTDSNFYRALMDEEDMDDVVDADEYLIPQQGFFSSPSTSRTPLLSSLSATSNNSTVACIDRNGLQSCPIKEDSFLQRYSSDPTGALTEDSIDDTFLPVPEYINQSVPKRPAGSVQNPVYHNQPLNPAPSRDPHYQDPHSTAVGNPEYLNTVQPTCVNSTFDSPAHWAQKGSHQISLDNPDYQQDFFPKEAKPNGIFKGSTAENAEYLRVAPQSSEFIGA

As for `COc1ccc(C=NNC(=O)c2ccc3[nH]c(-c4ccc(Cl)cc4)nc3c2)cc1` [Compound 4g, N′-(4-Methoxybenzylidene)-2-(4-chlorophenyl)-1H-benzimidazole-5-carbohydrazide], the TGI stood at 5.84 µM in the test on EKVX; 30.40 µM in the test on MOLT-4; 5.14 µM in the test on OVCAR-3; 6.03 µM in the test on CAKI-1; 5.64 µM in the test on HS 578T; 4.57 µM in the test with SNB-75. Besides, the TGI in the test with MDA-MB-468 stood at 4.55 µM; in the test with OVCAR-8, 11.50 µM; in the test on M14, 7.76 µM; in the test with IGROV1, 3.97 µM; in the test with SW-620, 5.58 µM; in the test on RXF 393, 3.80 µM. Further, the TGI in the test on SK-MEL-2 stood at 13.80 µM; in the test with DU-145 it was 4.61 µM; in the test on SR it was 15.40 µM; in the test on U251, 5.22 µM; with 786-0 it was 3.67 µM. Further, the GI50 in the test on EKVX (setting [2]) was 2.11 µM; in test [1] (average sensitivity of all cell lines, read-out: MID a (GI50)), 2.52 µM; in test [1] (five-dose assay, range over cell lines, read-out: GI50 range over the examined cell lines), 0.997 to 7.81 µM; in the test on MOLT-4 (setting [2]), 4.53 µM; in the test with OVCAR-3 (setting [2]) it was 2.28 µM; in the test with CAKI-1 (setting [2]) it was 2.1 µM. The GI50 is 2.3 µM in the test on HS 578T (setting [2]); 1.53 µM in the test with SNB-75 (setting [2]); 1.94 µM with MDA-MB-468 (setting [2]); 3.19 µM in the test on OVCAR-8 (setting [2]); 2.41 µM with M14 (setting [2]); 1.65 µM in the test with IGROV1 (Homo sapiens, IGROV-1, read-out: GI50 Conc. per Cell Line). Besides, the GI50 came out at 2.41 µM with SW-620 (setting [2]); 1.86 µM in the test on RXF 393 (setting [2]); 3.59 µM with SK-MEL-2 (setting [2]); 1.98 µM with DU-145 (setting [2]); 2.87 µM with SR (setting [2]); 2.43 µM with U251 (Homo sapiens, U-251, read-out: GI50 Conc. per Cell Line). The GI50 in the test with 786-0 (setting [2]) came to 1.93 µM. Moreover, the CC50 was 36.6 µM in the test with EKVX (setting [3]); more than 100 µM in the test with MOLT-4 (setting [3]); 16 µM in the test on OVCAR-3 (setting [3]); 25.6 µM with CAKI-1 (setting [3]); more than 100 µM in the test with HS 578T (setting [3]); 25.7 µM in the test on SNB-75 (setting [3]). Also, the CC50 in the test on OVCAR-8 (setting [3]) is more than 100 µM; in the test with M14 (setting [3]), 40.5 µM; in the test with IGROV1 (Homo sapiens, IGROV-1, read-out: LC50 (the source's name)), 9.57 µM; with RXF 393 (setting [3]), 7.76 µM; in the test with DU-145 (setting [3]), 14 µM; in the test on SR (setting [3]), more than 100 µM. Moreover, the CC50 in the test on U251 (Homo sapiens, U-251, read-out: LC50 (the source's name)) is 30.4 µM; in the test with 786-0 (setting [3]), 6.98 µM. In addition, on EGFR, half-maximal inhibition (IC50) required 0.27 ± 0.03 µM. The LC50 (concentration killing 50% of cells) in the test on MDA-MB-468 (Homo sapiens) is 12.6 µM. Moreover, the LC50 in the test on SW-620 (Homo sapiens) was found to be 31 µM; in the test with SK-MEL-2 (Homo sapiens), 69.7 µM.
The molecule `O=C(NN=Cc1ccc(F)cc1)c1ccc2[nH]c(-c3ccc(Cl)cc3)nc2c1` [Compound 4d, N′-(4-Fluorobenzylidene)-2-(4-chlorophenyl)-1H-benzimidazole-5-carbohydrazide] yielded an IC50 against EGFR of 0.68 ± 0.05 µM.
On the same count and under the same terms, then `COc1cc(/C=N/NC(=O)c2ccc3[nH]c(-c4ccc(Cl)cc4)nc3c2)cc(OC)c1OC` [Compound 4h, N′-(3,4,5-Trimethoxybenzylidene)-2-(4-chlorophenyl)-1H-benzimidazole-5 carbohydrazide], with 0.56 ± 0.05 µM.

What is called TGI is the concentration at which net growth stops. High values mean less potent growth arrest, low ones more potent growth arrest. For orientation: GI50 means the concentration giving 50% growth inhibition. As a reminder, the IC50 is the midpoint of a concentration-inhibition curve. Low readings indicate inhibition by little substance, high ones a need for much substance. As a reminder, the LC50 is the concentration that kills 50% of the test population. A lower LC50 goes with a more lethal substance.
